{"source": "patent US20060040312A1", "about": "(priority 1999, published 2006)", "key": {"F425G Shaker mutation": {"molecular_target": "F425G Shaker mutation (Drosophila melanogaster, UniProt P08510, F425G)", "sequence (P08510 whole entry F425G)": "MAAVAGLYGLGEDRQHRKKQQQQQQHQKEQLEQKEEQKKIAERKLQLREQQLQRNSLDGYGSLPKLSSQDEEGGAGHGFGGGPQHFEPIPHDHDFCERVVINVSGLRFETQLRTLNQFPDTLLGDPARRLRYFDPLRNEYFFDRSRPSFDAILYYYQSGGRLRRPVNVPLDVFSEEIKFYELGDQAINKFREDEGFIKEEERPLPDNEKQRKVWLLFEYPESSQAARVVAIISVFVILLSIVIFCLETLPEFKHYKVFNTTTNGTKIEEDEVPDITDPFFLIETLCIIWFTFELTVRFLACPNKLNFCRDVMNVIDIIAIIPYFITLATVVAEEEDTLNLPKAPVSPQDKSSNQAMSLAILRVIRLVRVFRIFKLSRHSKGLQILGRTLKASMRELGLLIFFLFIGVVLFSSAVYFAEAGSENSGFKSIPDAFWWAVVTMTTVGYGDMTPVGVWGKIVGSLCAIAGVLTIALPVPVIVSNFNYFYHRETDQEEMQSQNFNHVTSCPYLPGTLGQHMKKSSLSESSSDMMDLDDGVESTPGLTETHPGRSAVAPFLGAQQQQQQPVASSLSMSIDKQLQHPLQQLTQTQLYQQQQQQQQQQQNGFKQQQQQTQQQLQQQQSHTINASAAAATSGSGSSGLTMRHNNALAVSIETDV", "settings": "cited from earlier work"}, "[1]": {"test_system": "primary cortical cultures"}, "[2]": {"molecular_target": "Shaker H4 potassium channel (Drosophila melanogaster, UniProt P08510)", "sequence (P08510 whole entry)": "as the sequence (P08510 whole entry F425G) above, with G425F counted along it", "settings": "cited from earlier work"}, "[3]": {"test_system": "primary cultures of ventricular myocytes", "format": "cell-based, rat"}, "[4]": {"test_system": "primary cultures of cortex", "format": "cell-based, rat"}, "trachea": {"test_system": "trachea", "format": "cell-based, rat"}, "Kv1.1": {"molecular_target": "T1, Kv1.1 (Homo sapiens, UniProt Q09470)", "T1 construct": "host or cells: oocytes", "T1 sequence (Q09470 whole entry)": "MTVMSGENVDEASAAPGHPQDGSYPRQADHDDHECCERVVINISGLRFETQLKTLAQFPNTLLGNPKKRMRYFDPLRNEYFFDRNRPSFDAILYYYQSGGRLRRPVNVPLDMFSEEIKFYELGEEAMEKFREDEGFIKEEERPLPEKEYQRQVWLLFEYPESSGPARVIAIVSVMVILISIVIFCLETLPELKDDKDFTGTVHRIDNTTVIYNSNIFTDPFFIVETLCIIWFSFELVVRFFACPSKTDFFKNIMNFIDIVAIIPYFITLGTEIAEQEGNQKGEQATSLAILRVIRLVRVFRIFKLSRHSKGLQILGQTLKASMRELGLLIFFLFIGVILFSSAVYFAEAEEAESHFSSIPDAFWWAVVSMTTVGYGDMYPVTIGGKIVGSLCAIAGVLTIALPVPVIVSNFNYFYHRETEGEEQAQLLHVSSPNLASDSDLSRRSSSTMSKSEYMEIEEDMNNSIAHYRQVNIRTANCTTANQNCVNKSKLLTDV", "settings": "cited from earlier work"}, "[5]": {"test_system": "primary cultures of cortex"}, "[6]": {"test_system": "single tracheal, neuronal or myocyte cells", "format": "cell-based, rat"}, "cardiac myocytes": {"test_system": "cardiac myocytes", "format": "cell-based, rat"}, "[7]": {"test_system": "primary cultures of cortex", "format": "cell-based, rat", "remark": "listed apart in the source"}, "Kv1.4": {"molecular_target": "Kv1.4 (Homo sapiens, UniProt P22459)", "sequence (P22459 whole entry)": "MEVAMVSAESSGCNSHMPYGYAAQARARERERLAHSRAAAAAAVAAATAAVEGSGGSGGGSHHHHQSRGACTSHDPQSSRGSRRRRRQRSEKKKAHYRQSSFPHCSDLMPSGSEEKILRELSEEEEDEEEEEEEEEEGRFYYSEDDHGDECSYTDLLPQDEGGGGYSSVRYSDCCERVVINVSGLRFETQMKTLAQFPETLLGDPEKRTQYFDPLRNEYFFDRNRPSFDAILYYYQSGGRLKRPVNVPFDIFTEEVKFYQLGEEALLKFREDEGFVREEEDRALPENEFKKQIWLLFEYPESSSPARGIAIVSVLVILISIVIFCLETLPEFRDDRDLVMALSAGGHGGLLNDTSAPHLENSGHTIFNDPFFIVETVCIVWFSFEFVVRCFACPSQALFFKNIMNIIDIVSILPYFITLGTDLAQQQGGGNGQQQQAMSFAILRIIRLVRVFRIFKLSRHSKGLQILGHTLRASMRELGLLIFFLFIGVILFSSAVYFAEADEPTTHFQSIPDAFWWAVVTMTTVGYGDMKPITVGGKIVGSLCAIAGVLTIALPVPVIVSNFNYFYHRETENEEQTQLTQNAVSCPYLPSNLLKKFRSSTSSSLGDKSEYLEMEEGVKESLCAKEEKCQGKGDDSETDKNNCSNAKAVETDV", "settings": "cited from earlier work"}, "[8]": {"test_system": "primary cultures of cortical neurons", "format": "cell-based, rat"}, "[9]": {"test_system": "primary cultures of cortex", "format": "cell-based, rat", "remark": "listed apart in the source"}, "Kv1.3": {"molecular_target": "T2, Kv1.3 (Homo sapiens, UniProt P22001)", "T2 construct": "host or cells: oocytes", "T2 sequence (P22001 whole entry)": "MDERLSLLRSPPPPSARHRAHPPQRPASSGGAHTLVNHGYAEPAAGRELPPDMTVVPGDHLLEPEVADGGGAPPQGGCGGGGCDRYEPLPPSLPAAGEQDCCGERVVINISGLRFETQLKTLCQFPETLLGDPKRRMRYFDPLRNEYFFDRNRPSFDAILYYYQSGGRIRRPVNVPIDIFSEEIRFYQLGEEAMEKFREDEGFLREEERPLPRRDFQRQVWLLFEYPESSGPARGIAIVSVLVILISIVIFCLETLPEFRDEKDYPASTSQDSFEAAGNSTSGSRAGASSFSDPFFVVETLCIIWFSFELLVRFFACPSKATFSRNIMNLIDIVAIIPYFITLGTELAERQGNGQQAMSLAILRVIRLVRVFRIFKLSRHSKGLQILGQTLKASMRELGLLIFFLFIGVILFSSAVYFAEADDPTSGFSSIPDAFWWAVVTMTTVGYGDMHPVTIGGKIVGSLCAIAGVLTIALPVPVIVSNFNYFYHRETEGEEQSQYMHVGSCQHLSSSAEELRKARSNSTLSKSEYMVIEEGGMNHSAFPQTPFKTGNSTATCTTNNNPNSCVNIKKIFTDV", "settings": "cited from earlier work"}, "[10]": {"test_system": "cardiac ventricular myocytes", "format": "cell-based, rat"}, "[11]": {"test_system": "histamine-contracted, isolated Guinea pig tracheal segments"}, "[12]": {"test_system": "primary cultures of ventricular myocytes"}, "[13]": {"settings": "rat, in vivo, iv"}, "cortex": {"test_system": "cortex", "format": "cell-based, rat"}}, "note": "Values joined by “and” are separate entries in the source; they are usually repeats but may differ in a detail not shown here. Equal entries are not always repeated. “Also recorded” adds a separate entry of the source. Positions of bridges follow the written chain, without caps; N, C: chain ends. Non-standard residues stand in square brackets, D forms with d. Residues, ends and D or L forms follow the SMILES beside them. Hyp = O=C(O)[C@@H]1C[C@@H](O)CN1"}
{"smiles": "CC[C@H](C)[C@@H]1NC(=O)[C@H](CCCNC(=N)N)NC(=O)[C@@H](N)CSSC[C@@H]2NC(=O)[C@@H]3CSSC[C@@H](C(=O)N[C@H](C(=O)O)C(C)C)NC(=O)[C@H](CCCCN)NC(=O)[C@H](CC(N)=O)NC(=O)[C@H](Cc4ccccc4)NC(=O)[C@H](CCCNC(=N)N)NC(=O)[C@H](CC(N)=O)NC(=O)[C@H](CSSC[C@H](NC(=O)[C@H](CCCCN)NC(=O)[C@H](CCC(N)=O)NC(=O)[C@H](CC(N)=O)NC(=O)[C@@H]4C[C@@H](O)CN4C1=O)C(=O)N[C@@H](Cc1ccccc1)C(=O)N[C@@H](CCC(N)=O)C(=O)N[C@@H](Cc1c[nH]cn1)C(=O)N[C@@H](CC(C)C)C(=O)N[C@@H](CC(=O)O)C(=O)N[C@@H](CC(=O)O)C(=O)N3)NC(=O)[C@H](CCCCN)NC(=O)[C@H](CCCNC(=N)N)NC(=O)[C@H](CO)NC2=O", "note": "[κ-PVIIA, kappa-conotoxin PVIIA] (H-CRI[Hyp]NQKCFQHLDDCCSRKCNRFNKCV-OH; disulfide 1-16, 8-20, 15-26)", "values": [{"measurement": "effect of F425G Shaker mutation on toxin affinity / sensitivity", "setting": "F425G Shaker mutation", "value": "abolishes"}, {"measurement": "degree of glutamate-induced excitotoxicity", "setting": "cortical cells", "value": "effectively reduces the degree of glutamate-induced excitotoxicity in a dose-dependant manner"}, {"measurement": "protection against delayed cytotoxic effects of glutamate", "setting": "cortical cells", "value": "very effective protection"}, {"measurement": "protease activity (cytotoxicity)", "setting": "[1]", "value": "no detectable protease activity"}, {"measurement": "block / inhibition of the Shaker channel", "setting": "[2]", "value": "block"}, {"measurement": "protection against hypoxia (intracellular calcium, fluo-3)", "setting": "[3]", "value": "able to provide protection against hypoxia"}, {"measurement": "change in intracellular K+ concentration (PBFI)", "setting": "[4]", "value": "reduction"}, {"measurement": "protection against hypoxia (intracellular calcium, fluo-3)", "setting": "trachea", "value": "able to provide protection against hypoxia"}, {"measurement": "activity on Kv1.1", "setting": "Kv1.1", "value": "no detectable activity; also recorded: no effects"}, {"measurement": "EC50", "setting": "[5]", "value": 0.0008, "unit": "pM"}, {"measurement": "protection against hypoxia-induced changes in membrane potential (current-clamp)", "setting": "[6]", "value": "A similar result"}, {"measurement": "current corrected for cell capacitance", "setting": "cardiac myocytes", "value": "4.6±0.4", "unit": "pA/pf"}, {"measurement": "current evoked", "setting": "cardiac myocytes", "value": "87.7±5.9", "unit": "pA"}, {"measurement": "induction of currents", "setting": "cardiac myocytes", "value": "induces glibenclamide-sensitive currents"}, {"measurement": "current corrected for cell capacitance", "setting": "[7]", "value": "2.4±0.7", "unit": "pA/pf"}, {"measurement": "current evoked", "setting": "[7]", "value": "26.2±6.2", "unit": "pA"}, {"measurement": "reversal potential of the evoked current", "setting": "[7]", "value": "~−20", "unit": "mV"}, {"measurement": "activity on Kv1.4", "setting": "Kv1.4", "value": "no detectable activity"}, {"measurement": "change in intracellular calcium (Fluo-3 fluorescence)", "setting": "[8]", "value": "−2.15±0.95% and −8.8±3.9%"}, {"measurement": "effect on intracellular calcium (Fluo-3)", "setting": "[8]", "value": "significant reduction"}, {"measurement": "initial glutamate-induced depolarization (current-clamp)", "setting": "[9]", "value": "prevents the initial glutamate-induced depolarization"}, {"measurement": "effects on Kv1.3", "setting": "Kv1.3", "value": "no effects"}, {"measurement": "protection against hypoxia-induced depolarization", "setting": "[10]", "value": "prevented any hypoxia-induced changes in membrane potential; also recorded: strong protective effect; also recorded: confers protection"}, {"measurement": "relaxation of histamine-contracted tracheal segments", "setting": "[11]", "value": "able to relax"}, {"measurement": "EC50", "setting": "[12]", "value": 0.0009, "unit": "pM"}, {"measurement": "effect on blood pressure", "setting": "[13]", "value": "no effect"}, {"measurement": "effect on heart rate", "setting": "[13]", "value": "no effect"}, {"measurement": "protection against hypoxia (intracellular calcium, fluo-3)", "setting": "cortex", "value": "able to provide protection against hypoxia"}]}
